As usually defined, the pKi is the Ki on a negative log10 scale, so that one unit is a factor of ten. Read a high pKi as a low Ki. As usually defined, the pIC50 is −log10 of the IC50, conventionally taken in molar units. Lower therefore signals a large IC50.

pIC50, pKi: −log10 of the molar value.

The target of assay [1] is Substance P 1-7 binding site. The experiment in a line: Binding affinity to SP1-7 binding site.
The target in assay [2] is Substance P 1-7 binding site. Kind of assay: Displacement of [3H]-SP1-7 from SP1-7 binding site by scintillation counting analysis. (In a radioligand displacement assay an active substance lowers the binding of a labelled ligand.)

In assay [1], `NC(=O)[C@H](Cc1ccccc1)NC(=O)OCc1ccccc1` gave a pKi of 8.28. Also, in assay [2], the pIC50 was 8.21 and the pKi is 8.28.

For `O=C(N[C@@H](Cc1ccccc1)c1nnc(-c2ccccc2)o1)OCc1ccccc1`, the pIC50 in assay [2] is 8.05.

In assay [2], `O=C(N[C@@H](Cc1ccccc1)C(=O)NNC(=O)c1ccccc1)OCc1ccccc1` had a negative-log IC50 (pIC50) of 8.19. This pIC50 and that of the compound before are within 0.2 log units of each other.

In assay [2], `N#CNC(=O)[C@H](Cc1ccccc1)NC(=O)OCc1ccccc1` had a pIC50 of 7.77. This pIC50 lies 0.42 log units lower than the previous one.
